Patent US20070135378A1, “Method for the direct synthesis of oligorhamnosides, composition comprising oligorhamnosides and use thereof as a medicament” (priority 2003, published 2007)

Assays:
dendritic cells [1] = assay type: cell-based
Description: Viability is determined from the mortality translated directly by the proportion of PI signal.

dendritic cells [2] = assay: Dendritic cell maturation (CD86 B7.2 expression, allergenic effect); assay type: cell-based, human; conditions: control substances, concentration not given
Description: Three groups of cells are analyzed: 1) those which have not been exposed to oligorhamnosides or the selected activation signals, which will be used as negative controls, 2) those which were incubated for 24 hours with the activation signals, which will be used as positive controls, and 3) those which had been in contact with the oligorhamnosides for 24 hours. The culture medium used is a classical medium of type RPMI 1640 (Bioproducts), supplemented with 10% FCS, glutamine (2 mM) and the antibiotics penicillin and streptomycin (Bioproducts). The rinse liquid used is a PI buffer (Bioproducts). The cellular activator used is INFγ (SIGMA). The allergenic effect is reflected by the maturation of the dendritic cells and the expression of the CD86 B7.2 receptor. The more this receptor is expressed, the higher the proportion of mature cells and the more the rhamnosylated derivative studied has an allergenic effect.

[3] = system: LTB4 released by human neutrophilic leukocytes; assay: Assay of LTB4 released by human neutrophilic leukocytes; assay type: cell-based; conditions: stimulation buffer, 0.1 μM
Description: (§1) Neutrophils are isolated from normal human blood and purified by an original method. They are then activated by a stimulation buffer which causes the release of two types of lipid molecules, arachidonic acid derivatives, arising from the cyclooxygenase and lipoxygenase pathways, namely the leukotriene LTB4 and the prostaglandin PGE2. This stimulation buffer contains in particular Ca^2+ and Mg^2+ ions. These assays are carried out by means of an ELISA-type commercial assay kit.
The results represent the means of the values assayed in two supernatants of cells stimulated during the same experiment.

keratinocytes = assay: Toxicity test: viability of keratinocytes; assay type: cell-based; conditions: for % viability: vs control 100%
Source text: 1) Principles of Cellular Viability Measurement Techniques • MTT [3-(4,5-[…])-2,5-diphenyl tetrazolium bromide] reduction technique (sold by Sigma).
This technique corresponds to a […] test allowing quantification of living, metabolically active cells in a non-radioactive manner. MTT is a cationic molecule which is bound to the membranes of mitochondria in a potential-dependant fashion. On the level of the mitochondria, MTT will be reduced to formazan blue by mitochondrial dehydrogenase. The living cells are thus colored blue, in contrast with the dead cells which remain transparent. The measure of viability is then carried out by measurement of the optical density using an automatic reader.
This method of analysis, however, seems to be better adapted for adherent cells (keratinocyte-type) than for non-adherent cells (monocytes and dendritic cells). Another study was thus envisaged to conclude on the cytotoxicity of the oligorhamnosides with respect to the differentiated cells analyzed, namely flow cytometry in the presence of propidium iodide. • XTT tetrazolium salt reduction technique.
This is a technique allowing quantification of cellular proliferation and of the number of living (metabolically active) cells, without the incorporation of radioactive isotopes. XTT, yellow in color, is a cationic molecule which is bound to the membranes of mitochondria in a potential-dependant fashion, as does MTT.
On the level of the mitochondria, XTT will be reduced to formazan (orange) by mitochondrial tetrazolium reductase. […] Indeed, the reduction product is soluble within the cell. The method is thus faster. Living cells, in the absence and presence of a treatment become colored, in contrast with dead cells which remain colorless. The level of formazan product is detected with the spectrophotometer at a wavelength of 450 nm and is directly proportional to the number of metabolically active cells.
2) Toxicity Tests • Keratinocytes were isolated and placed in culture from human skin biopsies. Measurements of optical density (absorbance) of the 4 wells treated with the same product concentration were averaged. This average was compared with the average of the measurements obtained for the 4 control wells (Student's t-test—comparison of means—significant difference at 95% if p<0.05 and 99% if p<0.01).
The viabilities of the treated cells are expressed as a percentage compared to the control (untreated cells) of 100% (OD treated/OD control×100).

[4] = system: 6-ketoPGF1α released by NHK; assay: Assay of prostaglandin 6-ketoPGF1α after stimulation of keratinocytes (ELISA); assay type: cell-based, human; conditions: for inhibition at 1 µM: Homo sapiens, Keratinocyte, 2 h
Description: Prostaglandin I2 (PGI2) is an unstable metabolite of the arachidonic acid degradation pathway. Like prostaglandin E2, it is a mediator of inflammation with vasodilatory properties. The instability of PGI2 lies in its rapid conversion (non-enzymatic hydration) to 6-keto prostaglandin F1α (6-ketoPG1α). It is thus this prostaglandin which is measured as a marker for PGI2 synthesis. PMA (phorbol-12-myristate-13-acetate) is an activator of protein kinase C. It is a non-physiological activator which mimics the effect of cytokines, including IL-1β on NHK, and encourages the cell to release a lipid molecule, the prostaglandin 6-ketoPGF1α. This prostaglandin is assayed by means of an ELISA. The two activators IL-1β and PMA are used. Indomethacin, an aspirin-type analgesic, is an anti-inflammatory drug (NSAID) which […]. It is used to inhibit the release of 6-ketoPGF1α. Two experiments were carried out. The first consists of pretreating the NHK with oligorhamnosides for 4 hours and then monitoring the stimulation for 2 hours in the presence of oligorhamnosides. A second experiment was carried out in which the pretreatment with oligorhamnosides was extended to 12 hours.

[5] = system: PGE2 released by human neutrophilic leukocytes; assay: Assay of PGE2 released by human neutrophilic leukocytes; assay type: cell-based
Description: as §1, with “kit. The results represent the means of the values assayed in two supernatants of cells stimulated during the same experiment.” for “kit.”

endothelial cells = assay: Cytotoxicity test (MTT) on endothelial cell lines; assay type: cell-based
Description: • Endothelial cells were placed in culture, immortalized and stabilized in their phenotype. The cell lines studied were appendix endothelial cells, brain microvascular endothelial cells, mesenteric lymphatic ganglia endothelial cells, peripheral lymphatic ganglia endothelial cells and skin microvascular endothelial cells.
The cytotoxicity test was carried out by means of a biochemical test on the transformation of a tetrazolium salt, MTT. […] Viability is indeed always greater than 85%, and this is true for all of the cells lines studied.

[6] = IL-1β stimulation 2 hours 1 ng/ml, 1 μM
[7] = PMA stimulation 2 hours 10 ng/ml, 1 μM

Structure (SMILES): C[S+](C)[O-] [DMSO control]
- Viability (propidium iodide, PI) (dendritic cells [1]): 1.27%
- CD86 B7.2 (Maturation) (dendritic cells [2]): 0.17%

Structure (SMILES): CC(Cc1ccc(O)c(O)c1)C(C)Cc1ccc(O)c(O)c1 (stereo not shown) [NDGA, nordihydroguaiaretic acid]
- % inhibition (LTB4 released) [3]: 73%
- LTB4 released, Stimulation [3]: 684 ± 185 pg/mL

Structure (SMILES): C[C@H](O)[C@H](O)[C@@H](O)[C@@H](O)C=O [Rhamnose, rhamnose]
- % viability (keratinocytes; 0.001 mg/ml): 95%
- % viability (keratinocytes; 0.01 mg/ml): 100%
- % viability (keratinocytes; 0.1 mg/ml): 98%
- % viability (keratinocytes; 1 mg/ml): 104%
- cytotoxicity (in words) (keratinocytes; even for the highest concentrations): does not exhibit cytotoxicity

Structure (SMILES): COc1ccc2c(c1)c(CC(=O)O)c(C)n2C(=O)c1ccc(Cl)cc1 [indomethacin]
- inhibition at 1 µM [4, 6]: 17%
- inhibition at 1 µM [4, 7]: 37%
- Mean 6-ketoPGF1α [4, 6]: 22.6 ± 3.4 pg/ml/μg proteins
- Mean 6-ketoPGF1α [4, 7]: 20.9 ± 4.9 pg/ml/μg proteins
- Mean 6-ketoPGF1α ([4]; Table 7 experiment, IL-1β stimulation 2 hours 1 ng/ml, concentration not given): 22.6 ± 3.4 pg/ml/μg proteins
- PGE2 released, Without stimulation ([5]; 1 μM): 4.5 ± 0 pg/mL
- inhibition at 1 µM ([5]; Homo sapiens, Leukocyte, stimulation buffer): 69%
- PGE2 released, Stimulation ([5]; stimulation buffer, 1 μM): 6.8 ± 1 pg/mL

Structure (SMILES): CCCCCOC1O[C@@H](C)[C@H](O)[C@@H](O)[C@H]1O (stereo partly shown) [pentyl-rhamnoside]
- Viability (endothelial cells; all of the cell lines studied): greater than 85%
- toxicity (in words) (endothelial cells; endothelial cell lines): no toxicity
